According to patent publication EP0256909B1, “N,N-bis-(4-fluorophenyl) carbamoyl acetohydroxamic acid and pharmaceutical composition containing it” (priority 1986, dated 1988):

Columns and labels:
[1] = system: souris; experiment: Pretoxicity (3 mice per dose); settings: intraperitoneal, mouse
Method: (§1) Le CRL 41131, en suspension dans une solution de gomme arabique à 5%, a été administré par voie intrapéritonéale sous un volume de 20 ml/kg chez la souris (mâle, NMRI, Evic Ceba) et de 5 ml/kg chez le rat (mâle, CD1, Sprague Dawley, Charles River).

[2] = system: rat; experiment: Global behaviour and reactivities, rat; assay type: in vivo
Method: Des lots de 3 animaux sont observés avant, puis 15 min, 30 min, 1 h, 2 h, 3 h et 24 h après l'administration de CRL 41131.

[3] = system: souris; experiment: Four plates test; assay type: in vivo; settings: mouse, 30 min after i.p. administration
Method: as §1
Le test est pratiqué sur des lots de 10 souris, 30 min après l'administration de CRL 41131.

[4] = system: souris; experiment: Motility reduced by hypoxic aggression; assay type: in vivo; settings: 8, 32, above all 128 et 512 mg/kg i.p., after acute hypobaric anoxia
Method: Trente minutes après avoir reçu le CRL 41131, les souris (10 par dose, 20 témoins) sont soumises à une anoxie hypobare aiguë (dépression de 600 mmHg en 90 s, détente de 45 s), puis elles sont placées en actimètre où leur motilité est enregistrée pendant 10 min.

[5] = system: souris; experiment: Asphyxic anoxia (gallamine triethiodide); assay type: in vivo; settings: i.p. 30 min before gallamine triethiodide 32 mg/kg i.p.
Method: Des lots de 10 souris reçoivent le CRL 41131 30 min avant l'administration intrapéritonéale de 32 mg/kg de triiodoéthylate de gallamine.

Structure (SMILES): O=C(CC(=O)N(c1ccc(F)cc1)c1ccc(F)cc1)NO [CRL 41131, acide N,N-bis-(4-fluorophényl) carbamoylacétohydroxamique]
- Prétoxicité: signes observés ([1]; 512 mg/kg): sédation, crampes abdominales, diminution de la fréquence respiratoire pendant 30 min, puis excitation. A 24 h : excitation et stéréotypies
- Prétoxicité: signes observés ([1]; 1024 mg/kg): sédation, crampes abdominales, diminution de la fréquence respiratoire pendant 30 min, puis excitation. A 24 h : excitation, stéréotypies et convulsions
- Prétoxicité: signes observés ([1]; 128 et 256 mg/kg): à partir de 30 min : excitation; à 24 h, l'excitation est encore présente, et présence de stéréotypies
- mortalité ([1]; 128 to 1024 mg/kg): Aucune mortalité
- comportement: excitation, réaction de peur ([2]; 256 mg/kg i.p.): excitation et augmentation de la réaction de peur (entre 2 h et 24 h)
- stéréotypies, réactivité au toucher ([2]; 256 mg/kg i.p., 24 h): stéréotypies, augmentation de la réactivité au toucher en 24 h
- comportement et réactivités ([2]; 4, 16 et 64 mg/kg i.p.): pas de modification nette du comportement et des réactivités
- nombre de passages punis [3]: n'entraîne pas d'augmentation nette du nombre de passages punis
- récupération motrice [4]: amélioration de la récupération motrice
- délai d'apparition des convulsions consécutives à une anoxie asphyxique [5]: ne modifie pratiquement pas
